Test [1] deals with TS217 cells. In words: Calcein AM staining of live cells. In kind it is cell-based. The settings on record: Homo sapiens, 120 h; 0.1 μg/mL tetracycline, 5 days; read-out: number of viable cells decreased (calcein-positive cells). The protocol:
The cytotoxicity of alpha-synuclein overexpression in TS217 cells was also assessed using the membrane-permeable dye, calcein AM. TS217 cells were plated on glass tissue culture chamber slides coated with poly-L-lysine and cultured in the absence (Control) or presence (Induced) of 0.1 μg/mL tetracycline for 5 days to induce alpha-synuclein expression. Cells were treated with 2 μM calcein AM and the fluorescence of enzyme-activated calcein AM (in live cells) was visualized using a fluorescent microscope (Olympus, Center Valley, Pa.) fitted with a digital camera controlled by the Metamorph program (Universal Imaging, West Chester, Pa.). Calcein-positive cells were quantitated using Metamorph software (Universal Imaging, West Chester, Pa.) (FIG. 4A).

Test [2] has as its system TS217 cells. Briefly: GM130 immunostaining of intact Golgi. The settings on record: 0.1 μg/mL tetracycline, six day induction. It is filed as cell-based, human. As to the method:
TS217 cells were plated on glass tissue culture chamber slides coated with poly-L-lysine and incubated for six days in the absence (Control) or presence of 0.1 μg/mL tetracycline (Induced) to induce alpha-synuclein expression. Following treatment, cells were fixed with 4% paraformaldehyde supplemented with 4% sucrose in phosphate-buffered saline, permeabilized with 0.2% triton in PBS, and stained with antibodies specific for the cis-Golgi tethering protein GM130 (FIG. 6A). The number of cells containing intact Golgi was reduced by almost 80% following the six day induction of alpha-synuclein (FIG. 6B).

In test [3] the test system is TS217 cells. The protocol:
To determine the effect of overexpression of wild-type alpha-synuclein on cell viability using the stable, inducible system, TS217 cells were treated with 0.1 μg/mL tetracycline for three to six days to induce expression of alpha-synuclein. The relative viability of the cells was assessed at one day intervals (day 3, day 4, day 5, and day 6) by measuring the cellular ATP level in cell lysates using a ViaLight® Plus Bioassay kit (Cambrex, Rockland, Me.). Relative cell viability was calculated as the ratio of induced cells to control cells (cells not treated with tetracycline), as an indication of alpha-synuclein-induced cytotoxicity (see FIG. 3).
To determine whether the effect of tetracycline on cell viability was concentration-dependent, TS217 cells grown in 96 well plates were incubated with different concentrations of tetracycline for six days. Following treatment, each of the experimental cell groups were lysed and the cellular ATP measured as described above. Media with the vehicle alone (no tetracycline) served as control (FIG. 5). […]

On to `CN(C)[C@@H]1C(O)=C(C(N)=O)C(=O)[C@@]2(O)C(O)=C3C(=O)c4c(O)cccc4[C@@](C)(O)[C@H]3C[C@@H]12` [tetracycline], for which the cytotoxicity at 0.1 µg/mL in the test with TS217 cells [1] is about 60%. The “number of cells containing intact Golgi reduced” value in the test on TS217 cells [2] is about 80%. Moreover, the “Relative cell viability decreased (ratio of induced cells to control cells)” value in the test on TS217 cells [3] (0.1 μg/mL tetracycline, from day 3 to day 6, no other toxicity-inducing agents) is “over 50%”.

Consider `CC(C)(C)n1nc(-c2ccc(Cl)cc2)c2c(N)ncnc21` [Cmp J, 1-t-Butyl-3-(4-chloro-phenyl)-1H-pyrazolo[3,4-d]pyrimidin-4-ylamine], for which the “Relative viability (ATP, ratio of induced to control), effect on alpha-synuclein-induced toxicity” value in the test on TS217 cells [3] (0.08, 0.15, 0.3 μM compound, with tetracycline induction for 5 days, FIG. 9) was “rescue of alpha-synuclein-induced toxicity”.

The values above are taken from patent US20100122362A1, “CELLS EXPRESSING ALPHA-SYNUCLEIN AND USES THEREFOR” (priority 2006, published 2010).
